# Data taken from patent US20060189675A1, “Crystalline form of a drug” (priority 2004, published 2006).
# Test: Solubility of Atrasentan Hydrochloride Crystalline Forms in 1,4-dioxane
# Type: physicochemical
# Conditions: 25° C., n=3
# Method: The solubility (in mg/mL) of Atrasentan Hydrochloride Crystalline Forms 1, 2 and 3 in 1,4-dioxane at 25° C.
row,SMILES,"solubility in 1,4-dioxane [mg/mL]"
1,"CCCCN(CCCC)C(=O)CN1C[C@H](c2ccc3c(c2)OCO3)[C@@H](C(=O)O)[C@@H]1c1ccc(OC)cc1 [Form 2, (2R,3R,4S)-(+)-2-(4-methoxyphenyl)-4-(1,3-benzodioxol-5-yl)-1-(N,N-di(n-butyl)aminocarbonylmethyl)pyrrolidine-3-carboxylic acid]",16.66 ± 0.22
2,"CCCCN(CCCC)C(=O)CN1C[C@H](c2ccc3c(c2)OCO3)[C@@H](C(=O)O)[C@@H]1c1ccc(OC)cc1 [Form 3, (2R,3R,4S)-(+)-2-(4-methoxyphenyl)-4-(1,3-benzodioxol-5-yl)-1-(N,N-di(n-butyl)aminocarbonylmethyl)pyrrolidine-3-carboxylic acid]",16.53 ± 0.22
3,"CCCCN(CCCC)C(=O)CN1C[C@H](c2ccc3c(c2)OCO3)[C@@H](C(=O)O)[C@@H]1c1ccc(OC)cc1 [Form 1, (2R,3R,4S)-(+)-2-(4-methoxyphenyl)-4-(1,3-benzodioxol-5-yl)-1-(N,N-di(n-butyl)aminocarbonylmethyl)pyrrolidine-3-carboxylic acid]",35.60 ± 1.82
